Literature values as cited in patent US20010031279A1, “Controlled delivery of antidepressants” (priority 1998, published 2001).
Counter-ions that a name gives are not always drawn.

time of peak plasma concentrations after dosing (conventional immediate release formulations): about one
half-life (in vivo): 2 to 4 h
Structure (SMILES): CCc1nn(CCCN2CCN(c3cccc(Cl)c3)CC2)c(=O)n1CCOc1ccccc1 [nefazodone hydrochloride, 2-[3-[4-(3-chlorophenyl)-piperazinyl]propyl]-5-ethyl-4-(2-phenoxyethyl)-2H-1,2,4-triazol-3(4H)-one hydrochloride]
